Consider 36 compounds from patent publication US6492383B1, “Thienopyrimidine and thienopyridine derivatives useful as anticancer agents” (Pfizer Inc., priority 1998, dated 2002).

Where a name gives a salt, the structure may show the parent alone.

As for `CN(C)CCCNCc1ccc(-c2cc3ncnc(Nc4ccc5[nH]ccc5c4)c3s2)cc1` [Example 36, N-{4-[4-(1H-Indol-5-ylamino)-thieno[3,2-d]pyrimidin-6-yl]-benzyl}-N′,N′-dimethyl-propane-1,3-diamine], the melting point (commonly the temperature, or range, at which the solid turns liquid) was 148 to 160 °C.

In turn, `Cc1ccc(-c2cc3ncnc(Nc4ccc5[nH]ccc5c4)c3s2)cc1` [Example 6, (1H-Indol-5-yl)-(6-p-tolyl-thieno[3,2-d]pyrimidin-4-yl)-amine] returned a melting point of 200 to 220 °C.

On to `OCCOCCNCc1ccc(-c2cc3ncnc(Nc4ccc5[nH]ccc5c4)c3s2)cc1` (as salt: mesylate) [Example 30, 2-(2-(4-[4-(1H-Indol-5-ylamino)-thieno[3,2-d]pyrimidin-6-yl]-benzylamino}-ethoxy)-ethanol], for which the melting point fell in the range of 111 to 119 °C.

The compound `c1ccc(-c2cc3ncnc(Nc4ccc(NCc5c[nH]c6ccccc56)cc4)c3s2)cc1` [Example 76, N-(1H-Indol-3-ylmethyl)-N′-(6-phenyl-thieno[3,2-d]pyrimidin-4-yl)-benzene-1,4-diamine] came in with a melting point of 259 to 261 °C.

`COc1ccc(Nc2ccc(Nc3ncnc4cc(-c5ccccc5)sc34)cc2)cc1OC` [Example 65, N-(3,4-Dimethoxy-phenyl)-N′-(6-phenyl-thieno[3,2-d]pyrimidin-4-yl)-benzene-1,4-diamine] had a melting point of 160 to 161 °C.

On to `Cc1nc(Nc2ccc3[nH]ccc3c2)c2sc(-c3ccccc3)cc2n1` [Example 71, (1H-Indol-5-yl)-(2-methyl-6-phenyl-thieno[3,2-d]pyrimidin-4-yl)-amine], for which the melting point was in the range of 205 to 210 °C.

In the case of `CNCc1ccc(-c2cc3ncnc(Nc4ccc5[nH]ccc5c4)c3s2)cc1` (as salt: mesylate) [Example 25, (1H-Indol-5-yl)-[6-(4-methylaminomethyl-phenyl)-thieno[3,2-d]pyrimidin-4-yl]-amine], the melting point was in the range of 140 to 147 °C.

As to `COc1ccc(Nc2ccc(Nc3nc(C)nc4cc(-c5ccccc5)sc34)cc2)cc1` [Example 72, N-(4-Methoxy-phenyl)-N′-(2-methyl-6-phenyl-thieno[3,2-d]pyrimidin-4-yl)-benzene-1,4-diamine], the melting point was 181 to 185 °C.

`O=C(c1ccco1)N1CCN(Cc2ccc(-c3cc4ncnc(Nc5ccc6[nH]ccc6c5)c4s3)cc2)CC1` [Example 46, Furan-2-yl-(4-{4-[4-(1H-indol-5-ylamino)-thieno[3,2-d]pyrimidin-6-yl]-benzyl}-piperazin-1-yl)-methanone] registered a melting point of 167 to 174 °C.

The compound `CC(=O)NCCNCc1ccc(-c2cc3ncnc(Nc4ccc5[nH]ccc5c4)c3s2)cc1` [Example 43, N-(2-{4-[4-(1H-Indol-5-ylamino)-thieno[3,2-d]pyrimidin-6-yl]-benzylamino}-ethyl)-acetamide] returned a melting point of 142 to 155 °C.

For `COCC1CCCN1Cc1ccc(-c2cc3ncnc(Nc4ccc5[nH]ccc5c4)c3s2)cc1` (stereo not drawn) [Example 42, (1H-Indol-5-yl)-{6-[4-(2-methoxymethyl-pyrrolidin-1-ylmethyl)-phenyl]-thieno[3,2-d]pyrimidin-4-yl}-amine], the melting point is 161 to 177 °C.

Regarding `c1nc(Nc2ccc3[nH]ccc3c2)c2sc(-c3ccc(CNC4CC4)cc3)cc2n1` [Example 40, [6-(4-Cyclopropylaminomethyl-phenyl)-thieno[3,2-d]pyrimidin-4-yl]-(1H-indol-5-yl)-amine], the melting point fell in the range of 176 to 180 °C.

Turning to `OCCNCCNCc1ccc(-c2cc3ncnc(Nc4ccc5[nH]ccc5c4)c3s2)cc1` (as salt: mesylate) [Example 31, 2-(2-{4-[4-(1H-indol-5-ylamino)-thieno[3,2-d]pyrimidin-6-yl]-benzylamino}-ethylamino)-ethanol], the melting point lay in the range of 78 to 95 °C.

As for `Clc1ccc(-c2cc3ncnc(Nc4ccc5[nH]ccc5c4)c3s2)cc1` [Example 3, [6-(4-Chloro-phenyl)-thieno[3,2-d]pyrimidin-4-yl]-(1H-indol-5-yl)-amine], the melting point fell in the range of 190 to 210 °C.

`CCCNCc1ccc(-c2cc3ncnc(Nc4ccc5[nH]ccc5c4)c3s2)cc1` [Example 21, (1H-Indol-5-yl)-[6-(4-propylaminomethyl-phenyl)-thieno[3,2-d]pyrimidin-4-yl]-amine] showed a melting point of 190 to 205 °C.

As to `NC(=O)C1CCN(Cc2ccc(-c3cc4ncnc(Nc5ccc6[nH]ccc6c5)c4s3)cc2)CC1` [Example 44, 1-{4-[4-(1H-Indol-5-ylamino)-thieno[3,2-d]pyrimidin-6-yl]-benzyl}-piperidine-4-carboxylic acid amide], the melting point was in the range of 198 to 205 °C.

As for `COc1ccc(-c2cc3ncnc(Nc4ccc5[nH]ccc5c4)c3s2)cc1` [Example 5, (1H-Indol-5-yl)-[6-(4-methoxy-phenyl)-thieno[3,2-d]pyrimidin-4-yl]-amine], the melting point is 150 to 180 °C.

In turn, `c1nc(Nc2ccc3[nH]ccc3c2)c2sc(-c3ccc(CN4CCOCC4)cc3)cc2n1` [Example 37, (1H-Indol-5yl)-[6-(4-morpholin4-ylmethyl-phenyl)-thieno[3,2-d]pyrimidin-4-yl]-amine] showed a melting point of 141 to 152 °C.

`O=Cc1c[nH]c2ccc(Nc3ncnc4cc(-c5ccccc5)sc34)cc12` [Example 74, 5-(6-Phenyl-thieno[3,2-d]pyrimidin-4-ylamino)-1H-indole-3-carbaldehyde] displayed a melting point of 174 to 175 °C.

Turning to `Fc1ccc(-c2cc3ncnc(Nc4ccc5[nH]ccc5c4)c3s2)cc1` [Example 4, [6-(4-Fluoro-phenyl)-thieno[3,2-d]pyrimidin-4-yl]-(1H-indol-5-yl)-amine], the melting point is 193 to 205 °C.

As for `CN1CCN(Cc2ccc(-c3cc4ncnc(Nc5ccc6[nH]ccc6c5)c4s3)cc2)CC1` (as salt: mesylate) [Example 26, (1H-Indol-5-yl)-{6-[4-(4-methyl-piperazin-1-ylmethyl)-phenyl]-thieno[3,2-d]pyrimidin-4-yl}-amine], the melting point was in the range of 143 to 150 °C.

`CCOC(=O)CNC(=O)CNCc1ccc(-c2cc3ncnc(Nc4ccc5[nH]ccc5c4)c3s2)cc1` [Example 38, (2-{4-[4-(1H-indol-5-ylamino)-thieno[3,2-d]pyrimidin-6-yl]-benzylamino}-acetylamino)-acetic acid ethyl ester] registered a melting point of 98 to 115 °C.

Compound `COc1ccc(Nc2ccc(Nc3ccnc4cc(-c5ccc(OC)nc5)sc34)cc2)cc1` [Example 87, N-(4-Methoxy-phenyl)-N′-[2-(6-methoxy-pyridin-3-yl)-thieno[3,2-b]pyridin-7-yl]-benzene-1,4-diamine] registered a melting point of 175 to 184 °C.

`Cc1cccc(Nc2ccc(Nc3ncnc4cc(-c5ccccc5)sc34)cc2)c1` [Example 63, N-(6-Phenyl-thieno[3,2-d]pyrimidin-4-yl)-N′-m-tolyl-benzene-1,4-diamine] registered a melting point of 170 to 171 °C.

`c1csc(CNCc2ccc(-c3cc4ncnc(Nc5ccc6[nH]ccc6c5)c4s3)cc2)c1` (as salt: mesylate) [Example 33, (1H-Indol-5-yl)-[6-(4-{[(thiophen-2-ylmethyl)-amino]-methyl}-phenyl)-thieno[3,2-d]pyrimidin-4-yl]-amine] had a melting point of 111 to 121 °C.

On to `COc1ccc(-c2cc3ncnc(Nc4ccc5[nH]ccc5c4)c3s2)cc1OC` [Example 16, [6-(3,4-Dimethoxy-phenyl)-thieno[3,2-d]pyrimidin-4-yl]-(1H-indol-5-yl)-amine], for which the melting point was 171 to 178 °C.

For the compound `c1nc(Nc2ccc3[nH]ccc3c2)c2sc(-c3ccc(CNCCN4CCNCC4)cc3)cc2n1` [Example 23, (1H-Indol-5-yl)-(6-{4-[(2-piperazin-1-yl-ethylamino)-methyl]-phenyl}-thieno[3,2-d]pyrimidin-4-yl)-amine], the melting point was 178 to 191 °C.

Regarding `CSc1ccc(-c2cc3ncnc(Nc4ccc5[nH]ccc5c4)c3s2)cc1` [Example 9, (1H-Indol-5-yl)-[6-(4-methylsulfanyl-phenyl)-thieno[3,2-d]pyrimidin-4-yl]-amine], the melting point is 163 to 178 °C.

For the compound `CCN(CC)CCCn1ccc2cc(Nc3ncnc4cc(-c5ccccc5)sc34)ccc21` [Example 70, [1-(3-Diethylamino-propyl)-1H-indol-5-yl]-(6-phenyl-thieno[3,2-d]pyrimidin-4-yl) -amine], the melting point lay within 178 to 180 °C.

`Cc1cc2cc(Nc3ncnc4cc(-c5ccccc5)sc34)ccc2[nH]1` [Example 68, (2-Methyl-1H-indol-5-yl)-(6-phenyl-thieno[3,2-d]pyrimidin-4-yl)-amine] displayed a melting point of 218 to 220 °C.

For the compound `Cc1c[nH]c2ccc(Nc3ncnc4cc(-c5ccccc5)sc34)cc12` [Example 82, (3-Methyl-1H-indol-5-yl)-(6-phenyl-thieno[3,2-d]pyrimidin-4-yl)-amine], the melting point fell in the range of 221 to 223 °C.

On to `c1ccc(-c2cc3ncnc(Nc4ccc5[nH]ccc5c4)c3s2)cc1` [Example 2, (1H-indol-5-yl)-(6-phenyl-thieno[3,2-d]pyrimidin-4-yl)-amine], for which the melting point was 255 to 258 °C (dec.).

`Cc1ccc(Nc2ccc(Nc3ncnc4cc(-c5ccccc5)sc34)cc2)cc1` [Example 64, N-(6-Phenyl-thieno[3,2-d]pyrimidin-4-yl)-N′-p-tolyl-benzene-1,4-diamine] gave a melting point of 221 to 222 °C.

`c1coc(CNCc2ccc(-c3cc4ncnc(Nc5ccc6[nH]ccc6c5)c4s3)cc2)c1` [Example 34, [6-(4-{[(Furan-2-ylmethyl)-amino]-methyl}-phenyl)-thieno[3,2-d]pyrimidin-4-yl]-(1H-indol-5-yl)-amine] yielded a melting point of 125 to 134 °C.

In turn, `COc1ccc(Nc2ccc(Nc3ncnc4cc(-c5ccccc5)sc34)cc2)cc1` [Example 62, N-(4-Methoxy-phenyl)-N′-(6-phenyl-thieno[3,2-d]pyrimidin-4-yl)-benzene-1,4-diamine] gave a melting point of 210 to 211 °C.

Take `c1nc(Nc2ccc3[nH]ccc3c2)c2sc(-c3ccc(CNCCN4CCOCC4)cc3)cc2n1` [Example 24, (1H-Indol-5-yl)-(6-{4-[(2-morpholin-4-yl-ethylamino)-methyl]-phenyl}-thieno[3,2-d]pyrimidin-4-yl)-amine]: the melting point is 100 to 111 °C.
